# Experimental data as given in patent publication US11654178B2, “Cyclic prosaposin peptides and uses thereof” (CHILDREN'S MEDICAL CENTER CORPORATION, priority 2014, dated 2023).
# Where a SMILES comes first, the peptide text is derived from it. Where no end group is shown, it is not given here. [ ]: non-standard residue; d: D form.
# Experiments:
# [1] = tested on: primary human ovarian cancer cell lines; test: Cell number (Wst-1) and apoptosis (Annexin V/PI FACS) of patient derived ovarian cancer cell lines; assay type: cell-based
# Description: FIGS. 12A-12E show stimulation of Tsp-1 and its effects on ovarian cancer cell growth and survival. FIG. 12A is a western blot of Tsp-1 and β-actin in WI-38 lung fibroblasts that were untreated (−) or treated with native DWLP (SEQ ID NO: 6), L-amino acid, prosaposin peptide (WT), dWIP (SEQ ID NO: 5, lower case d and 1 indicate D-amino acids) prosaposin peptide (d1.3) or DwLp (SEQ ID NO: 7, lower case w and p indicate D-amino acids) prosaposin peptide (d2,4): […] is a western blot of Tsp-1 and β-actin in mouse lung tissue harvested from mice treated with metastatic prostate cancer cell conditioned media alone (−) or in combination with DWLP (SEQ ID NO: 6) prosaposin peptide (WT) or dWIP (SEQ ID NO: 5, lower case d and l indicate D-amino acids) prosaposin peptide (d1,3 peptide) at doses of 10 and 30 mg/kg/day for 3 days; FIG. 12C is a western blot of CD36 and β-actin in 8 patient derived ovarian cancer cell lines; FIG. 12D is a plot of cell number as measured by Wst-1 assay of a patient derived ovarian cancer cell line treated with 1 μM recombinant human Tsp-1 (rhTsp-1) for 24, 48 and 72 hours; and FIG. 12E is a FACS analysis of Annexin V and PI of a patient derived ovarian cancer cell line treated with 1 μM recombinant human Tsp-1 (rhTsp-1) for 48 hours.
# In order to test the efficacy of the d-amino acid Psap peptide, a suitable tumor model that would represent a potential clinical application for the peptide, was determined. Given that Psap, and the peptide derived from it, stimulates Tsp-1 in bone marrow derived cells that are recruited to sites of metastasis, a specific type of cancer that expressed the receptor for Tsp-1 that mediates its pro-apoptotic activity, CD36 was sought to be identified (5). It has been reported that serous ovarian epithelial cells and human ovarian cancer cells express CD36 (11-13). […] Three of these cell lines were treated with recombinant human Tsp-1 for up to 72 hours and determined its effect on cell number and apoptosis.
# DF14 cells = test: PDX model of established ovarian cancer metastases, d-amino acid Psap peptide; assay type: in vivo; design: mice that died from adverse side effects / decrease of total body weight: dose or concentration left out as unconfirmed; settings: for body weight: 40 mg/kg QD, FIG. 16
# Description: 75 percent of ovarian cancer patients already have disseminated disease at the time of first diagnosis (E. Lengyel, Ovarian cancer development and metastasis. Am J Pathol 177, 1053-1064 (2010)). For these patients inhibiting metastasis would have limited therapeutic benefit. Rather, these patients require a therapeutic agent that can regress or, at the very least, stabilize existing metastases. Whether the d-amino acid Psap peptide could have therapeutic efficacy in a model of established metastatic dissemination was investigated. 1×10^6 DF14 cells, expressing firefly luciferase, were injected into the peritoneal cavity of SCID mice to mimic the route of dissemination of human ovarian cancer. The growth of metastatic colonies in the mice in real time were monitored via relative luciferase intensity and when the average intensity of the luciferase signal was 0.5-1×10^8 RLU, treatment with vehicle (saline), the d-amino acid peptide (40 mg/kg QD), or cisplatin (4 mg/kg QOD) was started. […] However, during those 20 days half of the cisplatin treated mice died from adverse side effects of the drug as defined by total body weight, which decreased by 40% (FIG. 13C). Moreover, after 20 days the tumors in the group of cisplatin treated mice that survived began to grow, despite continued treatment with cisplatin, and all the remaining mice died within 10 days (FIG. 13A).
# The livers and spleens of the Psap peptide treated mice were examined histologically (H&E) to determine whether there were any micrometastases.
# Metastases in the peritoneal cavity recruited Cd11b^+/Gr1^+ bone marrow derived cells, analogous to lung metastases was investigated (3). […] The fluid was FACS sorted from these mice to assess the population of Cd11^+/Gr1^+ bone marrow derived cells. […] Based on these findings it was concluded that the Psap peptide was able to dramatically regress established metastases to the point where no detectable lesions could be found.
# thrombospondin-1 (Tsp-1) = test: Tsp-1 activation in cultured cells by Western blot; assay type: cell-based
# Method: Cells were cultured and contacted with 4 micrograms/mL or 10 micrograms/mL of each peptide and the level of thrombospondin-1 (Tsp-1) activation was measured by Western blot. Tsp-1 has been previously shown to be activated by Saposin A protein.
# [2] = Stability in human plasma at 37° C., read out as Tsp-1 stimulation in WI-38 fibroblasts (ELISA); assay type: in vitro ADME; settings: 24 hours
# Method: The cyclic peptide DWLPK (SEQ ID NO: 1) was also tested for stability in human plasma compared to the linear peptide dWIP (SEQ ID NO: 5). Each peptide was incubated in human plasma at 37 degrees Celsius, for 2, 4, 8, or 24 hours.
# Cyclization also has the effect of increasing the stability of peptides by forcing them into a conformation that is not recognized by most naturally occurring proteases (9, 10, 14-18). The stability of the cyclic peptide to the linear d-amino acid peptide in human plasma was compared.
# Tsp-1 = Tsp-1 expression in lungs of mice pretreated with PC3M-LN4 conditioned media (western blot); assay type: in vivo, C57BL6/J mice; settings: dose of 10 mg/kg, 3 days, LN4 CM
# Method: The activity of the 1,3-d-amino acid Psap peptide and the native Psap peptide were tested in vivo. The peptides were systematically administered to C57BL6/J mice that were pretreated with conditioned media (CM) from PC3M-LN4 (LN4) cells, which previously mimicked the systemic properties of metastatic tumors by repressing the expression of Tsp-1 in the lungs of mice (3, 4). After 3 days of treatment with LN4 CM alone or in combination with two different doses (10 mg/kg/day and 30 mg/kg/day) of d- and 1-amino acid peptides (independently) protein pools were prepared from the harvested lungs of each treatment group. The level of Tsp-1 expression in the lungs of these mice were assessed by western blot analysis. It was observed that the 1,3-d-amino acid peptide stimulated Tsp-1 3-fold greater than the native peptide (FIG. 12B). […] Based on the observation that the in vitro activity of the two peptides was virtually identical, it was concluded that the difference in activity in vivo was due to a difference in stability.
molecule,measurement,setting,value
N.N.[Cl][Pt][Cl] [cisplatin],necrosis (low Anexin V and high PI staining),"[1]; FIG. 12E, compared with Tsp-1 treatment",much greater percentage of ovarian cancer cells underwent necrosis
same,time until all remaining mice died,DF14 cells; after day 20 of treatment,≤ 10 days
same,decrease of total body weight,DF14 cells; during first 20 days,40%
same,mice that died from adverse side effects,DF14 cells; during first 20 days,half
same,tumor volume as determined by luciferase intensity,"DF14 cells; first 20 days of treatment, peptide 40 mg/kg QD, cisplatin 4 mg/kg QOD",able to regress tumor volume
same,tumor growth after 20 days despite continued treatment,"DF14 cells; surviving mice, cisplatin 4 mg/kg QOD",began to grow
CC(C)C[C@@H]1NC(=O)[C@H](Cc2c[nH]c3ccccc23)NC(=O)[C@@H](CC(=O)O)NC(=O)[C@H](CCCCN)NC(=O)[C@@H]2CCCN2C1=O [cyclic dWLPK] (cyclo(K[dD]WLP)),effectiveness at increasing the level of Tsp-1,"thrombospondin-1 (Tsp-1); cyclic peptides, 4 micrograms/mL or 10 micrograms/mL, Western blot, FIG. 2",least effective
"CC(C)C[C@@H](NC(=O)[C@H](Cc1c[nH]c2ccccc12)NC(=O)[C@H](N)CC(=O)O)C(=O)N1CCC[C@H]1C(=O)O [linear dWIP, reference compound] (H-[dD]W[dL]P-OH; N-terminus and C-terminus assumed)",body weight,DF14 cells; listed as Psap peptide,no loss of body weight
same,body weight,DF14 cells; listed as psap peptide,no effect on body weight
same,ability to activate Tsp-1 after incubation in human plasma,"[2]; 37 degrees Celsius, FIG. 3",significantly less activity
same,Tsp-1 stimulation after incubation in human plasma,"[2]; 37° C., ELISA",no longer able to stimulate Tsp-1
RhTsp-1: recombinant human Tsp-1 (thrombospondin-1),apoptotic cells (Anexin V positivity) by FACS,"[1]; 1 μM, 48 hours, FIG. 12E",30-60%
same,"decrease in total cell number, of the original number of cells plated","[1]; three cell lines, up to 72 hours, 1 μM, FIG. 12D",up to 50%
linear DWGPK: linear version of peptide DWGPK (SEQ ID NO: 2) (not fully specified) [reference compound],"effectiveness at increasing Tsp-1, linear versions of the peptides",thrombospondin-1 (Tsp-1); similar study with linear versions,more effective than linear DWLPK
"native peptide: native DWLP (SEQ ID NO: 6), L-amino acid, prosaposin peptide (WT)",Tsp-1 stimulation in lungs,Tsp-1,did not significantly stimulate Tsp-1
